In BindingDB's records for PubMed 38988222 (Hebei University of Science & Technology):

How the values were obtained:
[1] = Inhibition of Ribosomal protein S6 kinase in human THP-1 cells by ELISA analysis
[2] = target: PI3K catalytic subunit gamma; test: Inhibition of P13Kgamma (unknown origin) in the presence of ATP by scintillation proximity assay
[3] = target: PI3K catalytic subunit beta; test: Inhibition of P13Kbeta (unknown origin) in the presence of ATP by scintillation proximity assay

| IC50 [2] | IC50 [3] | SMILES | other results |
| --- | --- | --- | --- |
|  |  | CC(NC(=O)c1c(N)nn2cccnc12)c1cc(Cl)c2c(C#N)ncn2c1N1CCS(=O)(=O)C(C)C1 (stereo unspecified) | IC50 [1]: < 300 nM |
| < 100 nM |  | Cc1cc(S(=O)(=O)N[C@H]2CC[C@H](O)CC2)ccc1-c1cnc2c(N)c(Cl)ccn12 |  |
|  | 400 nM | Cc1cc(S(=O)(=O)N[C@H]2CC[C@H](O)CC2)ccc1-c1cnc(N)c(C(=O)C2CC2)n1 |  |
|  | 1700 nM | Cc1ncc(-c2cc(-c3ccc(S(=O)(=O)NCC(C)(C)O)cc3C)cnc2N)o1 |  |
| < 50 nM |  | Clc1ccc(Cn2cc(-c3ccnc(-c4ncc(-c5ccccc5)[nH]4)c3)cn2)cc1 [US11352340, Example 1] |  |
| < 100 nM |  | Cc1nnc(-c2cc(-c3cc4c(c(S(C)(=O)=O)c3)C(=O)N([C@@H](C)C3CC3)C4)ccn2)[nH]1 [US11396502, Example 12] |  |
